Experimental data published in patent publication US11697646B2, “Triazole N-linked carbamoyl cyclohexyl acids as LPA antagonists” (BRISTOL-MYERS SQUIBB COMPANY, priority 2017, dated 2023).

target: T1, human LPA1 (Homo sapiens, UniProt Q92633); test: LPA1 functional antagonist assay (calcium flux); assay type: cell-based; details: CHO cells overexpressing human LPA1; calcium flux induced by 10 nM LPA; read-out: hLPA1 IC50
T1 construct: expressed in transfected cells; host or cells: Chinese hamster ovary (CHO) cells
Procedure: The effectiveness of compounds of the present invention as LPA1 inhibitors can be determined in an LPA1 functional antagonist assay as follows:
The cells were then equilibrated to room temperature for 30 minutes before the assay. […] IC50 values were determined by fitting data to a 4-parameter logistic equation (GraphPad Prism, San Diego Calif.).

T1 sequence (Q92633 whole entry): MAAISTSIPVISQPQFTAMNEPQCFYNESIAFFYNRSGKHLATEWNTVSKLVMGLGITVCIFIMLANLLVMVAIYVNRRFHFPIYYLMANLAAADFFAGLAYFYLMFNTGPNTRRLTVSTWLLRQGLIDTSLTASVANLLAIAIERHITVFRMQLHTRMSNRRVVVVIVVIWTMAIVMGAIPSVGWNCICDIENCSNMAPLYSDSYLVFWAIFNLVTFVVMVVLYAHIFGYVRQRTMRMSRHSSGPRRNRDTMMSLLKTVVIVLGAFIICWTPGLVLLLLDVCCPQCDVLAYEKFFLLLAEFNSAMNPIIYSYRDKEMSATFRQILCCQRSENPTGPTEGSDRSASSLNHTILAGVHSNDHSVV

IC50 [nM]	Compound
19	Cc1nc(-c2nnn(C)c2CNC(=O)OCC2CC(C)(C)C2)ccc1O[C@H]1CCC[C@H](C(=O)O)C1 [Example 38, (1S,3S)-3-((6-(5-(((((3,3-dimethylcyclobutyl)methoxy)carbonyl)amino)methyl)-1-methyl-1H-1,2,3-triazol-4-yl)-2-methylpyridin-3-yl)oxy)cyclohexanecarboxylic acid]
788	CCCOC(=O)NCc1c(-c2ccc(O[C@H]3CCC[C@H](C(=O)O)C3)c(CC)n2)nnn1C [Example 42, (1S,3S)-3-((2-ethyl-6-(1-methyl-5-(((propoxycarbonyl)amino)methyl)-1H-1,2,3-triazol-4-yl)pyridin-3-yl)oxy)cyclohexane-1-carboxylic acid]
8	CCc1nc(-c2nnn(C)c2CNC(=O)OCc2ccccc2)ccc1O[C@H]1CCC[C@H](C(=O)O)C1 [Example 43, (1S,3S)-3-((6-(5-((((benzyloxy)carbonyl)amino)methyl)-1-methyl-1H-1,2,3-triazol-4-yl)-2-ethylpyridin-3-yl)oxy)cyclohexne-1-carboxylic acid]
37	CCc1nc(-c2nnn(C)c2CNC(=O)OC2CCCC2)ccc1O[C@H]1CCC[C@H](C(=O)O)C1 [Example 44, (1S,3S)-3-((6-(5-((((cyclopentyloxy)carbonyl)amino)methyl)-1-methyl-1H-1,2,3-triazol-4-yl)-2-ethylpyridin-3-yl)oxy)cyclo-hexane-1-carboxylic acid]
94	CCc1nc(-c2nnn(C)c2CNC(=O)OCC(C)(C)C)ccc1O[C@H]1CCC[C@H](C(=O)O)C1 [Example 45, (1S,3S)-3-((2-ethyl-6-(1-methyl-5-((((neopentyloxy)carbonyl)amino)methyl)-1H-1,2,3-triazol-4-yl)pyridin-3-yl)oxy)cyclohexane-1-carboxylic acid]
602	Cc1nc(-c2nnn(C)c2CNC(=O)OCC2(F)CC2)ccc1O[C@H]1CCC[C@H](C(=O)O)C1 [Example 49, (1S,3S)-3-((6-(5-(((((1-fluorocyclopropyl)methoxy)carbonyl)amino)methyl)-1-methyl-1H-1,2,3-triazol-4-yl)-2-methylpyridin-3-yl)oxy)cyclohexane-1-carboxylic acid]
28	CCCC1(COC(=O)NCc2c(-c3ccc(O[C@H]4CCC[C@H](C(=O)O)C4)cn3)nnn2C)CC1 [Example 50, (1S,3S)-3-((6-(1-methyl-5-(((((1-propylcyclopropyl)methoxy)carbonyl)amino)methyl)-1H-1,2,3-triazol-4-yl)pyridin-3-yl)oxy)cyclohexane-1-carboxylic acid]
62	CCC1(COC(=O)NCc2c(-c3ccc(O[C@H]4CCC[C@H](C(=O)O)C4)cn3)nnn2C)CC1 [Example 51, (1S,3S)-3-((6-(5-(((((1-ethylcyclopropyl)methoxy)carbonyl)amino)methyl)-1-methyl-1H-1,2,3-triazol-4-yl)pyridin-3-yl)oxy)cyclohexane-1-carboxylic acid]
81	Cn1nnc(-c2ccc(O[C@H]3CCC[C@H](C(=O)O)C3)cn2)c1CNC(=O)OCC1(C)CC1 [Example 52, (1S,3S)-3-((6-(1-methyl-5-(((((1-methylcyclopropyl)methoxy)carbonyl)amino)methyl)-1H-1,2,3-triazol-4-yl)pyridin-3-yl)oxy)cyclohexane-1-carboxylic acid]
342	COCCCOC(=O)NCc1c(-c2ccc(O[C@H]3CCC[C@H](C(=O)O)C3)c(C)n2)nnn1C [Example 53, (1S,3S)-3-((6-(5-((((3-methoxypropoxy)carbonyl)amino)methyl)-1-methyl-1H-1,2,3-triazol-4-yl)-2-methylpyridin-3-yl)oxy)cyclohexane-1-carboxylic acid]
58	CCCC1(COC(=O)NCc2c(-c3ccc(O[C@H]4CCC[C@H](C(=O)O)C4)c(C)n3)nnn2C)CCC1 [Example 54]
411	Cc1nc(-c2nnn(C)c2CNC(=O)OCCCF)ccc1O[C@H]1CCC[C@H](C(=O)O)C1 [Example 55, (1S,3S)-3-((6-(5-((((3-fluoropropoxy)carbonyl)amino)methyl)-1-methyl-1H-1,2,3-triazol-4-yl)-2-methylpyridin-3-yl)oxy)cyclohexane-1-carboxylic acid]
885	CCOCCOC(=O)NCc1c(-c2ccc(O[C@H]3CCC[C@H](C(=O)O)C3)c(C)n2)nnn1C [Example 56, (1S,3S)-3-((6-(5-((((2-ethoxyethoxy)carbonyl)amino)methyl)-1-methyl-1H-1,2,3-triazol-4-yl)-2-methyl-pyridin-3-yl)oxy)cyclohexane-1-carboxylic acid]
68	CCC1(COC(=O)NCc2c(-c3ccc(O[C@H]4CCC[C@H](C(=O)O)C4)c(C)n3)nnn2C)CCC1 [Example 57, (1S,3S)-3-((6-(5-(((((1-ethylcyclobutyl)methoxy)carbonyl)amino)methyl)-1-methyl-1H-1,2,3-triazol-4-yl)-2-methylpyridin-3-yl)oxy)cyclohexane-1-carboxylic acid]
38	CCC1(COC(=O)NCc2c(-c3ccc(O[C@H]4CCC[C@H](C(=O)O)C4)c(C)n3)nnn2C)CC1 [Example 58, (1S,3S)-3-((6-(5-(((((1-ethylcyclopropyl)methoxy)carbonyl)amino)methyl)-1-methyl-1H-1,2,3-triazol-4-yl)-2-methylpyridin-3-yl)oxy)cyclohexane-1-carboxylic acid]
48	Cc1nc(-c2nnn(C)c2CNC(=O)OCC2(C)CC2)ccc1O[C@H]1CCC[C@H](C(=O)O)C1 [Example 59, (1S,3S)-3-((2-methyl-6-(1-methyl-5-(((((1-methylcyclopropyl)methoxy)carbonyl)amino)methyl)-1H-1,2,3-triazol-4-yl)pyridin-3-yl)oxy)cyclohexane-1-carboxylic acid]

Compound	IC50 [nM]
CCCCOC(=O)N(C)Cc1c(-c2ccc(O[C@H]3CCC[C@H](C(=O)O)C3)c(C)n2)nnn1C [Example 36, (1S,3S)-3-((6-(5-(((butoxycarbonyl)(methyl)amino)methyl)-1-methyl-1H-1,2,3-triazol-4-yl)-2-methyl-pyridin-3-yl)oxy)cyclohexane carboxylic acid]	19
Cc1nc(-c2nnn(C)c2CNC(=O)OCCC(C)(C)C)ccc1O[C@H]1CCC[C@H](C(=O)O)C1 [Example 37, (1S,3S)-3-((6-(5-((((3,3-dimethylbutoxy)carbonyl)amino)methyl)-1-methyl-1H-1,2,3-triazol-4-yl)-2-methylpyridin-3-yl)oxy)cyclohexanecarboxylic acid]	12
CCCCOC(=O)NCc1c(-c2ccc(O[C@H]3CCC[C@H](C(=O)O)C3)c(CC)n2)nnn1C [Example 41, (1S,3S)-3-((6-(5-(((butoxycarbonyl)amino)methyl)-1-methyl-1H-1,2,3-triazol-4-yl)-2-ethylpyridin-3-yl)oxy)cyclohexane-1-carboxylic acid]	8
CCc1nc(-c2nnn(C)c2CNC(=O)OCC(C)C)ccc1O[C@H]1CCC[C@H](C(=O)O)C1 [Example 46, (1S,3S)-3-((2-ethyl-6-(5-(((isobutoxycarbonyl)amino)methyl)-1-methyl-1H-1,2,3-triazol-4-yl)pyridin-3-yl)oxy)cyclohexane-1-carboxylic acid]	120
